# Experimental data: US20030004172A1, “Fused pyrimidinone matrix metalloproteinase inhibitors” (priority 2001, published 2003)
# Biological target: MMP-13CD (catalytic domain of collagenase-3) (Homo sapiens, UniProt P45452)
# Test: Thiopeptolide substrate hydrolysis inhibition assay, MMP-13CD
# Assay type: biochemical
# Details: Table I; thiopeptolide substrate, HEPES pH 7.0, 22° C.; read-out: MMP-13CD IC50
# From the text: Thiopeptolide substrates show virtually no decomposition or hydrolysis at or below neutral pH in the absence of a matrix metalloproteinase enzyme.
row,SMILES,IC50 [nM]
1,COc1cccc(CNC(=O)c2cc3c(=O)n(CCSc4ccc(Cl)cc4)c(=O)n(C)c3s2)c1 [Example 278],7600
2,COc1cccc(CNC(=O)c2cc3c(=O)n(C(C)c4ccccc4)c(=O)n(C)c3s2)c1 (stereo not drawn) [Example 279],3500
3,COc1cccc(CNC(=O)c2cc3c(=O)n(CC[C@@H](C)CCC=C(C)C)c(=O)n(C)c3s2)c1 [Example 280],17000
4,CCCCC(CC)Cn1c(=O)c2cc(C(=O)NCc3cccc(OC)c3)sc2n(C)c1=O (stereo not drawn) [Example 281],8900
5,COc1cccc(CNC(=O)c2cc3c(=O)n(CCS(=O)(=O)Cc4ccccc4)c(=O)n(C)c3s2)c1 [Example 282],10000
6,COc1cccc(CNC(=O)c2cc3c(=O)n(CCCCCC#N)c(=O)n(C)c3s2)c1 [Example 283],1700
7,C/C=C/Cn1c(=O)c2cc(C(=O)NCc3cccc(OC)c3)sc2n(C)c1=O [Example 284],1500
8,COc1cccc(CNC(=O)c2cc3c(=O)n(CCc4cccc5ccccc45)c(=O)n(C)c3s2)c1 [Example 285],30000
9,CC/C=C/Cn1c(=O)c2cc(C(=O)NCc3cccc(OC)c3)sc2n(C)c1=O [Example 286],270
10,COc1cccc(CNC(=O)c2cc3c(=O)n(CCSc4ccccc4)c(=O)n(C)c3s2)c1 [Example 287],1900
11,CCC(C)n1c(=O)c2cc(C(=O)NCc3cccc(OC)c3)sc2n(C)c1=O (stereo not drawn) [Example 288],4200
12,C=C(C)Cn1c(=O)c2cc(C(=O)NCc3cccc(OC)c3)sc2n(C)c1=O [Example 289],2700
13,CCC(CC)n1c(=O)c2cc(C(=O)NCc3cccc(OC)c3)sc2n(C)c1=O [Example 290],15000
14,CCC#CCn1c(=O)c2cc(C(=O)NCc3cccc(OC)c3)sc2n(C)c1=O [Example 291],120
15,COc1cccc(CNC(=O)c2cc3c(=O)n(CC=C(C)C)c(=O)n(C)c3s2)c1 [Example 292],10000
16,COc1cccc(CNC(=O)c2cc3c(=O)n(CCS(=O)(=O)c4ccc(C)cc4)c(=O)n(C)c3s2)c1 [Example 293],> 100000
17,COc1cccc(CNC(=O)c2cc3c(=O)n(CCNC(=O)c4ccccc4)c(=O)n(C)c3s2)c1 [Example 294],> 100000
18,COc1cccc(CNC(=O)c2cc3c(=O)n(CCOc4ccc(Br)cc4)c(=O)n(C)c3s2)c1 [Example 295],230
19,COc1cccc(CNC(=O)c2cc3c(=O)n(Cc4ccc5nonc5c4)c(=O)n(C)c3s2)c1 [Example 296],50.5
20,COc1cccc(CNC(=O)c2cc3c(=O)n(CCOc4ccccc4)c(=O)n(C)c3s2)c1 [Example 297],57
21,COC(=O)Nc1cc(Cn2c(=O)c3cc(C(=O)NCc4cccc(OC)c4)sc3n(C)c2=O)on1 [Example 298],490
22,COc1cccc(CNC(=O)c2cc3c(=O)n(CC(=O)C(CC(=O)OC(C)(C)C)NC(=O)OCc4ccccc4)c(=O)n(C)c3s2)c1 (stereo not drawn) [Example 299],30000
23,"COC(=O)c1cc2c(=O)n(Cc3ccccc3)c(=O)n(C)c2s1 [Example 300, 3-Benzyl-1-methyl-2,4-dioxo-1,2,3,4-tetrahydro-thieno[2,3-d]pyrimidine-6-carboxylic acid methyl ester]",> 100000

row,SMILES,IC50 [nM]
1,"Cc1c(C(=O)OCc2ccccc2)sc2[nH]c(=O)n(Cc3ccc(Br)cc3)c(=O)c12 [Example 301, 3-(4-Bromo-benzyl)-5-methyl-2,4-dioxo-1,2,3,4-tetrahydro-thieno[2,3-d]pyrimidine-6-carboxylic acid benzyl ester]",> 100000
2,"Cc1c(C(=O)OCc2ccccc2)sc2[nH]c(=O)n(Cc3ccc(F)cc3)c(=O)c12 [Example 302, 3-(4-Fluoro-benzyl)-5-methyl-2,4-dioxo-1,2,3,4-tetrahydro-thieno[2,3-d]pyrimidine-6-carboxylic acid benzyl ester]",30000
3,"Cn1c(=O)n(Cc2ccccc2)c(=O)c2cc(C(=O)OCc3cc4ccccc4s3)sc21 [Example 304, 3-Benzyl-1-methyl-2,4-dioxo-1,2,3,4-tetrahydro-thieno[2,3-d]pyrimidine-6-carboxylic acid benzo[b]thiophen-2-ylmethyl ester]",3100
4,"Cn1ccc2cc(COC(=O)c3cc4c(=O)n(Cc5ccccc5)c(=O)n(C)c4s3)ccc21 [Example 305, 3-Benzyl-1-methyl-2,4-dioxo-1,2,3,4-tetrahydro-thieno[2,3-d]pyrimidine-6-carboxylic acid 1-methyl-1H-indol-5-ylmethyl ester]",46700
5,"Cn1c(=O)n(Cc2ccc3c(c2)OCO3)c(=O)c2cc(C(=O)OCc3ccccc3)sc21 [Example 307, 3-1,3-Benzodioxol-5-ylmethyl-1-methyl-2,4-dioxo-1,2,3,4-tetrahydro-thieno[2,3-d]pyrimidine-6-carboxylic acid benzyl ester]",5.2
6,"Cn1c(=O)n(Cc2ccncc2)c(=O)c2cc(C(=O)OCc3ccccc3)sc21 [Example 308, 1-Methyl-2,4-dioxo-3-pyridin-4-ylmethyl-1,2,3,4-tetrahydro-thieno[2,3-d]pyrimidine-6-carboxylic acid benzyl ester]",7.15
7,"Cn1c(=O)n(Cc2ccc(C(C)(C)C)cc2)c(=O)c2cc(C(=O)OCc3ccccc3)sc21 [Example 309, 3-(4-tert-Butyl-benzyl)-1-methyl-2,4-dioxo-1,2,3,4-tetrahydro-thieno[2,3-d]pyrimidine-6-carboxylic acid benzyl ester]",56
8,"Cc1c(C(=O)OCc2ccccc2)sc2[nH]c(=O)n(Cc3ccc(Cl)c(Cl)c3)c(=O)c12 [Example 310, 3-(3,4-Dichloro-benzyl)-5-methyl-2,4-dioxo-1,2,3,4-tetrahydro-thieno[2,3-d]pyrimidine-6-carboxylic acid benzyl ester]",30000
9,"Cn1c(=O)n(Cc2ccc(OC(F)(F)F)cc2)c(=O)c2cc(C(=O)OCc3ccccc3)sc21 [Example 311, 1-Methyl-2,4-dioxo-3-(4-trifluoromethoxy-benzyl)-1,2,3,4-tetrahydro-thieno[2,3-d]pyrimidine-6-carboxylic acid benzyl ester]",84.5
10,"Cn1c(=O)n(Cc2ccc3ccccc3c2)c(=O)c2cc(C(=O)OCc3ccccc3)sc21 [Example 312, 1-Methyl-3-naphthalen-2-ylmethyl-2,4-dioxo-1,2,3,4-tetrahydro-thieno[2,3-d]pyrimidine-6-carboxylic acid benzyl ester]",27.5
11,"Cn1c(=O)n(Cc2ccc(C#N)cc2)c(=O)c2cc(C(=O)OCc3ccccc3)sc21 [Example 313, 3-(4-Cyano-benzyl)-1-methyl-2,4-dioxo-1,2,3,4-tetrahydro-thieno[2,3-d]pyrimidine-6-carboxylic acid benzyl ester]",6.45
12,"Cn1c(=O)n(Cc2ccccc2)c(=O)c2cc(C(=O)OCc3ccc4occc4c3)sc21 [Example 314, 3-Benzyl-1-methyl-2,4-dioxo-1,2,3,4-tetrahydro-thieno[2,3-d]pyrimidine-6-carboxylic acid benzofuran-5-ylmethyl ester]",18.5
13,"COc1cc(Cn2c(=O)c3cc(C(=O)OCc4ccccc4)sc3n(C)c2=O)cc(OC)c1 [Example 315, 3-(3,5-Dimethoxy-benzyl)-1-methyl-2,4-dioxo-1,2,3,4-tetrahydro-thieno[2,3-d]pyrimidine-6-carboxylic acid benzyl ester]",20.5
14,"COc1ccc(CCNC(=O)c2cc3c(=O)n(Cc4ccccc4)c(=O)n(C)c3s2)cc1OC [Example 320, 3-Benzyl-1-methyl-2,4-dioxo-1,2,3,4-tetrahydro-thieno[2,3-d]pyrimidine-6-carboxylic acid[2-(3,4-dimethoxy-phenyl)-ethyl]-amide]",> 100000
15,"Cn1c(=O)n(Cc2ccccc2)c(=O)c2cc(C(=O)NCc3ccc(N)cc3)sc21 [Example 321, 3-Benzyl-1-methyl-2,4-dioxo-1,2,3,4-tetrahydro-thieno[2,3-d]pyrimidine-6-carboxylic acid 4-amino-benzylamide]",> 100000
16,"Cn1c(=O)n(Cc2ccccc2)c(=O)c2cc(C(=O)NCCc3ccc(Cl)cc3)sc21 [Example 322, 3-Benzyl-1-methyl-2,4-dioxo-1,2,3,4-tetrahydro-thieno[2,3-d]pyrimidine-6-carboxylic acid[2-(4-chloro-phenyl)-ethyl]-amide]",> 100000
17,"Cn1c(=O)n(Cc2ccccc2)c(=O)c2cc(C(=O)NCc3ccccc3-c3ccccc3)sc21 [Example 323, 3-Benzyl-1-methyl-2,4-dioxo-1,2,3,4-tetrahydro-thieno[2,3-d]pyrimidine-6-carboxylic acid (biphenyl-2-ylmethyl)-amide]",> 100000
18,"COc1ccc(CNC(=O)c2cc3c(=O)n(Cc4ccccc4)c(=O)n(C)c3s2)cc1OC [Example 324, 3-Benzyl-1-methyl-2,4-dioxo-1,2,3,4-tetrahydro-thieno[2,3-d]pyrimidine-6-carboxylic acid 3,4-dimethoxy-benzylamide]",> 100000
19,"Cn1c(=O)n(Cc2ccccc2)c(=O)c2cc(C(=O)NCCc3ccncc3)sc21 [Example 325, 3-Benzyl-1-methyl-2,4-dioxo-1,2,3,4-tetrahydro-thieno[2,3-d]pyrimidine-6-carboxylic acid (2-pyridin-4-yl-ethyl)-amide]",> 100000
20,"CCOc1cccc(CCNC(=O)c2cc3c(=O)n(Cc4ccccc4)c(=O)n(C)c3s2)c1 [Example 327, 3-Benzyl-1-methyl-2,4-dioxo-1,2,3,4-tetrahydro-thieno[2,3-d]pyrimidine-6-carboxylic acid[2-(3-ethoxy-phenyl)-ethyl]-amide]",2800
21,"Cn1c(=O)n(Cc2ccccc2)c(=O)c2cc(C(=O)NCc3ccc(F)c(Cl)c3)sc21 [Example 328, 3-Benzyl-1-methyl-2,4-dioxo-1,2,3,4-tetrahydro-thieno[2,3-d]pyrimidine-6-carboxylic acid 3-chloro-4-fluoro-benzylamide]",2700
22,"Cn1c(=O)n(Cc2ccccc2)c(=O)c2cc(C(=O)NCc3ccc(Cl)cc3Cl)sc21 [Example 329, 3-Benzyl-1-methyl-2,4-dioxo-1,2,3,4-tetrahydro-thieno[2,3-d]pyrimidine-6-carboxylic acid 2,4-dichloro-benzylamide]",30000
